Results reported in patent US8415272B2, “Quinoline derivatives and their use as fungicides” (Syngenta Crop Protection LLC, priority 2008, dated 2013).

How the values were obtained:
Phytophthora infestans = assay: whole plant or invertebrate; type: in vivo; details: in Solanum lycopersicum, foliar, 96 h, read-out: control of fungal infection, Phytophthora infestans
Fusarium culmorum = assay: Growth inhibition in nutrient broth, Fusarium culmorum (root rot), photometric; type: cell-based; details: 48 h, read-out: control of fungal infection, Fusarium culmorum
Method: The compounds were tested in a leaf disk assay, with methods described below. The test compounds were dissolved in DMSO and diluted into water to 200 ppm. In the case of the test on Pythium ultimum, they were dissolved in DMSO and diluted into water to 20 ppm.
Fusarium culmorum (root rot): Conidia of the fungus from cryogenic storage were directly mixed into nutrient broth (PDB potato dextrose broth). After placing a (DMSO) solution of the test compounds into a microtiter plate (96-well format) the nutrient broth containing the fungal spores was added. The test plates were incubated at 24 C and the inhibition of growth was determined photometrically after 48 hrs.

[1] = system: Erysiphe graminis f.sp. tritici; assay: Leaf disk assay, Erysiphe graminis f.sp. tritici (wheat powdery mildew), preventive; type: in vivo; details: Blumeria graminis, foliar, 96 h, wheat leaf segments, assessed four days after inoculation, read-out: control of fungal infection, Erysiphe graminis f.sp. tritici
Method: The compounds were tested in a leaf disk assay, with methods described below. The test compounds were dissolved in DMSO and diluted into water to 200 ppm. In the case of the test on Pythium ultimum, they were dissolved in DMSO and diluted into water to 20 […] graminis f.sp. tritici (wheat powdery mildew): Wheat leaf segments were placed on agar in a 24-well plate and sprayed with a solution of the test compound. After allowing to dry completely, for between 12 and 24 hours, the leaf disks were inoculated with a spore suspension of the fungus. After appropriate incubation the activity of a compound was assessed four days after inoculation as preventive fungicidal activity.

Pythium ultimum = assay: Growth inhibition in potato dextrose broth, Pythium ultimum (damping off), photometric; type: cell-based; details: Globisporangium ultimum, 24° C., 48 hours, read-out: control of fungal infection, Pythium ultimum
Method: The compounds were tested in a leaf disk assay, with methods described below. The test compounds were dissolved in DMSO and diluted into water to 200 ppm. In the case of the test on Pythium ultimum, they were dissolved in DMSO and diluted into water to 20 ppm. Pythium ultimum (Damping off): Mycelial fragments of the fungus, prepared from a fresh liquid culture, were mixed into potato dextrose broth. A solution of the test compound in dimethyl sulphoxide was diluted with water to 20 ppm then placed into a 96-well microtiter plate and the nutrient broth containing the fungal spores was added. The test plate was incubated at 24° C. and the inhibition of growth was determined photometrically after 48 hours.

Plasmopara viticola = assay: Leaf disk assay, Plasmopara viticola (downy mildew of grapevine), preventive; type: in vivo; details: foliar, 168 h, grapevine leaf disks, assessed seven days after inoculation, read-out: control of fungal infection, Plasmopara viticola
Septoria nodorum = assay: Leaf disk assay, Septoria nodorum (wheat glume blotch), preventive; type: in vivo; details: Parastagonospora nodorum, foliar, 96 h, wheat leaf segments, assessed four days after inoculation, read-out: control of fungal infection, Septoria nodorum
Septoria tritici = assay: Growth inhibition in nutrient broth, Septoria tritici (leaf blotch), photometric; type: cell-based; details: Zymoseptoria tritici, PDB broth, 24 C, 72 hrs, read-out: control of fungal infection, Septoria tritici
[2] = system: Puccinia recondita f.sp. tritici; assay: Leaf disk assay, Puccinia recondita f.sp. tritici (wheat brown rust), preventive; type: in vivo; details: foliar, 216 h, wheat leaf segments, assessed nine days after inoculation, read-out: control of fungal infection, Puccinia recondita f.sp. tritici

C#Cc1cnc2ccc(OC(SC)C(=O)NCC#N)cc2c1 (stereo not drawn) [Example 196]
≥ 60%: pest or weed control at 200 ppm (Phytophthora infestans) | inhibition of growth at 60 ppm (Fusarium culmorum) | pest or weed control at 200 ppm [1] | inhibition of growth at 20 ppm (Pythium ultimum) | pest or weed control at 200 ppm (Plasmopara viticola) | pest or weed control at 200 ppm (Septoria nodorum) | inhibition of growth at 60 ppm (Septoria tritici)

C#Cc1cnc2cc(F)c(OC(CC)C(=O)NC(C)(C)C=O)cc2c1 (stereo not drawn) [Example 193]
≥ 60%: pest or weed control at 200 ppm (Phytophthora infestans) | inhibition of growth at 60 ppm (Fusarium culmorum) | inhibition of growth at 20 ppm (Pythium ultimum) | pest or weed control at 200 ppm (Plasmopara viticola)

CC#Cc1cnc2ccc(OC(SC)C(=O)NC(C)(C)C)cc2c1 (stereo not drawn) [Example 54]
≥ 60%: pest or weed control at 200 ppm (Phytophthora infestans) | inhibition of growth at 60 ppm (Fusarium culmorum) | pest or weed control at 200 ppm [1] | inhibition of growth at 20 ppm (Pythium ultimum) | pest or weed control at 200 ppm (Plasmopara viticola) | pest or weed control at 200 ppm (Septoria nodorum) | inhibition of growth at 60 ppm (Septoria tritici)

C#Cc1cnc2c(F)cc(OC(SC)C(=O)NC(C)(C)C)cc2c1 (stereo not drawn) [Example 201]
≥ 60%: pest or weed control at 200 ppm (Phytophthora infestans) | inhibition of growth at 60 ppm (Fusarium culmorum) | pest or weed control at 200 ppm [1] | inhibition of growth at 20 ppm (Pythium ultimum) | pest or weed control at 200 ppm (Plasmopara viticola) | pest or weed control at 200 ppm (Septoria nodorum) | inhibition of growth at 60 ppm (Septoria tritici)

C#Cc1cnc2ccc(OC(SC)C(=O)NC(C)(C)CC#N)cc2c1 (stereo not drawn) [Example 197]
≥ 60%: pest or weed control at 200 ppm (Phytophthora infestans) | inhibition of growth at 60 ppm (Fusarium culmorum) | inhibition of growth at 20 ppm (Pythium ultimum) | pest or weed control at 200 ppm (Plasmopara viticola)

C#Cc1cnc2ccc(OC(SC)C(=O)NC(C)(C)C=O)cc2c1 (stereo not drawn) [Example 61]
≥ 60%: pest or weed control at 200 ppm (Phytophthora infestans) | inhibition of growth at 60 ppm (Fusarium culmorum) | pest or weed control at 200 ppm [1] | inhibition of growth at 20 ppm (Pythium ultimum) | pest or weed control at 200 ppm (Plasmopara viticola) | pest or weed control at 200 ppm [2] | inhibition of growth at 60 ppm (Septoria tritici)

C#Cc1cnc2cc(F)c(OC(SC)C(=O)NC(C)(C)C#CCC)cc2c1 (stereo not drawn) [Example 190]
≥ 60%: pest or weed control at 200 ppm (Phytophthora infestans) | inhibition of growth at 60 ppm (Fusarium culmorum) | inhibition of growth at 20 ppm (Pythium ultimum) | pest or weed control at 200 ppm (Plasmopara viticola)

COCC#Cc1cnc2ccc(OC(SC)C(=O)NC(C)(C)C)cc2c1 (stereo not drawn) [Example 42]
≥ 60%: pest or weed control at 200 ppm (Phytophthora infestans) | inhibition of growth at 60 ppm (Fusarium culmorum) | pest or weed control at 200 ppm [1] | inhibition of growth at 20 ppm (Pythium ultimum) | pest or weed control at 200 ppm (Plasmopara viticola) | pest or weed control at 200 ppm [2] | inhibition of growth at 60 ppm (Septoria tritici)

C#Cc1cnc2c(Cl)cc(OC(SC)C(=O)NC(C)(C#N)COC)cc2c1 (stereo not drawn) [Example 64]
≥ 60%: pest or weed control at 200 ppm (Phytophthora infestans) | pest or weed control at 200 ppm [1] | inhibition of growth at 20 ppm (Pythium ultimum) | pest or weed control at 200 ppm (Plasmopara viticola) | pest or weed control at 200 ppm (Septoria nodorum) | pest or weed control at 200 ppm [2] | inhibition of growth at 60 ppm (Septoria tritici)

C#CCOCC(C)(COCC#C)NC(=O)C(Oc1ccc2ncc(C#C)cc2c1)SC (stereo not drawn) [Example 165]
≥ 60%: pest or weed control at 200 ppm (Phytophthora infestans) | pest or weed control at 200 ppm [1] | inhibition of growth at 20 ppm (Pythium ultimum) | pest or weed control at 200 ppm (Plasmopara viticola) | pest or weed control at 200 ppm (Septoria nodorum) | pest or weed control at 200 ppm [2] | inhibition of growth at 60 ppm (Septoria tritici)

C#Cc1cnc2ccc(OC(SC)C(=O)NC(C)(C#N)COC)cc2c1 (stereo not drawn) [Example 25]
≥ 60%: pest or weed control at 200 ppm (Phytophthora infestans) | pest or weed control at 200 ppm [1] | inhibition of growth at 20 ppm (Pythium ultimum) | pest or weed control at 200 ppm (Plasmopara viticola) | pest or weed control at 200 ppm (Septoria nodorum) | pest or weed control at 200 ppm [2] | inhibition of growth at 60 ppm (Septoria tritici)

C#Cc1cnc2c(C)cc(OC(CC)C(=O)NC(C)(C)CO)cc2c1 (stereo not drawn) [Example 111]
≥ 60%: pest or weed control at 200 ppm (Phytophthora infestans) | inhibition of growth at 60 ppm (Fusarium culmorum) | pest or weed control at 200 ppm [1] | inhibition of growth at 20 ppm (Pythium ultimum) | pest or weed control at 200 ppm (Plasmopara viticola) | pest or weed control at 200 ppm (Septoria nodorum) | inhibition of growth at 60 ppm (Septoria tritici)

C#Cc1cnc2ccc(OC(CC)C(=O)NC(C)(C)CO)cc2c1 (stereo not drawn) [Example 110]
≥ 60%: pest or weed control at 200 ppm (Phytophthora infestans) | inhibition of growth at 60 ppm (Fusarium culmorum) | pest or weed control at 200 ppm [1] | inhibition of growth at 20 ppm (Pythium ultimum) | pest or weed control at 200 ppm (Septoria nodorum) | inhibition of growth at 60 ppm (Septoria tritici)

CSC(Oc1ccc2ncc(C#CBr)cc2c1)C(=O)NC(C)(C)C (stereo not drawn) [Example 69]
≥ 60%: pest or weed control at 200 ppm (Phytophthora infestans) | inhibition of growth at 60 ppm (Fusarium culmorum) | inhibition of growth at 20 ppm (Pythium ultimum) | pest or weed control at 200 ppm (Plasmopara viticola) | inhibition of growth at 60 ppm (Septoria tritici)

C#Cc1cnc2ccc(OC(OC)C(=O)NC(C)(C)C#CCOC)cc2c1 (stereo not drawn) [Example 125]
≥ 60%: pest or weed control at 200 ppm (Phytophthora infestans) | inhibition of growth at 60 ppm (Fusarium culmorum) | pest or weed control at 200 ppm [1] | inhibition of growth at 20 ppm (Pythium ultimum) | pest or weed control at 200 ppm (Plasmopara viticola) | inhibition of growth at 60 ppm (Septoria tritici)

CC#Cc1cnc2ccc(OC(SC)C(=O)NC(C)(C)C#CCOC)cc2c1 (stereo not drawn) [Example 55]
≥ 60%: pest or weed control at 200 ppm (Phytophthora infestans) | pest or weed control at 200 ppm [1] | inhibition of growth at 20 ppm (Pythium ultimum) | pest or weed control at 200 ppm (Plasmopara viticola) | pest or weed control at 200 ppm (Septoria nodorum) | pest or weed control at 200 ppm [2] | inhibition of growth at 60 ppm (Septoria tritici)

C#Cc1cnc2ccc(OC(OC)C(=O)NC(C)(C)C#C)cc2c1 (stereo not drawn) [Example 124]
≥ 60%: pest or weed control at 200 ppm (Phytophthora infestans) | inhibition of growth at 60 ppm (Fusarium culmorum) | pest or weed control at 200 ppm [1] | inhibition of growth at 20 ppm (Pythium ultimum) | pest or weed control at 200 ppm (Plasmopara viticola) | pest or weed control at 200 ppm (Septoria nodorum) | inhibition of growth at 60 ppm (Septoria tritici)

C#CC(C)(C)NC(=O)C(Oc1ccc2ncc(C#CC)cc2c1)SC (stereo not drawn) [Example 57]
≥ 60%: pest or weed control at 200 ppm (Phytophthora infestans) | inhibition of growth at 60 ppm (Fusarium culmorum) | pest or weed control at 200 ppm (Plasmopara viticola) | pest or weed control at 200 ppm (Septoria nodorum) | inhibition of growth at 60 ppm (Septoria tritici)

C#Cc1cnc2ccc(OC(SC)C(=O)NC(C#C)(CC)CC)cc2c1 (stereo not drawn) [Example 207]
≥ 60%: pest or weed control at 200 ppm (Phytophthora infestans) | inhibition of growth at 60 ppm (Fusarium culmorum) | pest or weed control at 200 ppm [1] | inhibition of growth at 20 ppm (Pythium ultimum) | pest or weed control at 200 ppm (Plasmopara viticola) | pest or weed control at 200 ppm [2]

C#Cc1cnc2ccc(OC(SC)C(=O)NC(C)(COC)COC)cc2c1 (stereo not drawn) [Example 88]
≥ 60%: pest or weed control at 200 ppm (Phytophthora infestans) | pest or weed control at 200 ppm [1] | inhibition of growth at 20 ppm (Pythium ultimum) | pest or weed control at 200 ppm (Plasmopara viticola) | pest or weed control at 200 ppm (Septoria nodorum) | pest or weed control at 200 ppm [2] | inhibition of growth at 60 ppm (Septoria tritici)

C#Cc1cnc2ccc(OC(SC)C(=O)NC(C)(C#C)CC)cc2c1 (stereo not drawn) [Example 205]
≥ 60%: pest or weed control at 200 ppm (Phytophthora infestans) | inhibition of growth at 60 ppm (Fusarium culmorum) | pest or weed control at 200 ppm [1] | inhibition of growth at 20 ppm (Pythium ultimum) | pest or weed control at 200 ppm (Plasmopara viticola)
